Assay results from a melting point compilation (Tetko et al.; mined from patent text by program, amines drawn as free bases though some values may be those of a salt).

SMILES	melting point [°C]
N#CCCN1CCN(P(=S)(N2CCN(CCC#N)CC2)N2CCN(CCC#N)CC2)CC1	122
C=CCN1CCC(=O)N(c2c(C)cccc2C)C1=S	88 to 91
Cc1ccc(Oc2ccc(Oc3ccc(C)c(C)c3)cc2)cc1C	106
CCC1(Br)Cc2cc(OCC(=O)O)c(C)c(C)c2C1=O (configuration not stated)	136 to 139
OC12N=C(c3ccccc3)SC1Cc1cc(Cl)ccc12 (configuration not stated)	155
NC(=O)c1cc([N+](=O)[O-])cc(Br)n1	179 to 180
Cc1noc(C)c1C(=O)Nc1ccc(-n2nc(C(F)(F)F)cc2C(F)(F)F)c(C(F)(F)F)c1	61 to 63
CC(C)c1cccc(C(C)C)c1NC(=O)Cc1ccccc1NCC(c1ccccc1)c1ccccc1	174 to 176
CCOC(=O)c1cnc2onc(C)c2c1N(CS(=O)(=O)c1ccc(OC)cc1)c1cccnc1	128 to 130
COC(C)c1cc([N+](=O)[O-])ccc1C (configuration not stated)	35 to 37
Cn1c(=O)cnn(-c2cc(OCC#CBr)c(Cl)cc2F)c1=O	127 to 129
CCOC(=O)c1cn(-c2nc3ccccc3[nH]2)cn1	252 to 253
CCNC(=O)n1nc(Oc2c(Cl)cc(C(F)(F)F)cc2Cl)cc1C	80 to 82
CNC(C)c1ccc(C2CCC(N(C)C(=O)c3ccc(Cl)cc3)CC2)cc1 (configuration not stated)	153 to 155
O=C(OCc1cc(F)nc(F)c1)c1ccccc1	83 to 84
C[C@@H](n1cnc2c(Cl)cc(Cl)cc2c1=O)[C@](O)(Cn1cncn1)c1ccc(F)cc1F	158 to 160
Nc1cccc(CC(=O)O)c1	116 to 121
CCC(O)(c1ccc(OCCCN2CCCCC2)cc1)c1ccccc1OC (configuration not stated)	110 to 111
Cc1oc2ccccc2c1OC(C)(C)C#N	53 to 55
CCOC(=O)c1nc2c(=O)[nH]c3cc(C(F)(F)F)ccc3n2c1CP(=O)(O)O	> 250
O=c1c2ccc(Cl)cc2cc2n1CCCS2	109 to 110
Cn1ncc(SCc2ccccc2)c(Br)c1=O	118 to 121
O=C(Nc1cc(Cl)ccc1O)c1cc(Cl)cc(Cl)c1	251 to 252
Cc1c(C(N)=O)oc2c(C(=O)NCCCN3CCN(c4cc(Cl)ccc4O)CC3)cccc2c1=O	116 to 158

SMILES	melting point [°C]
CN(C)CCCOc1ccc(-c2nn(CC(=O)O)c3ncccc23)cc1	221 to 223
CC(=O)Nc1c(C(=O)c2ccncc2)[nH]c2cc(Cl)ccc12	262 to 264
COC(=O)C(Sc1nnnn1-c1ccccc1)N1C(=O)c2ccccc2S1(=O)=O (configuration not stated)	160 to 162
CCOC(=O)C(Cl)=Cc1cc(Cl)ccc1-n1c(=O)c(Cl)c(C(F)(F)F)n(C)c1=O	160 to 164
CNC(=NC#N)NCc1ncc(-c2csc(N=C(N)N)n2)s1	258 to 259
O=C(O)c1c(C(F)(F)F)nc2ccccc2c1O	262
CCOC(=O)c1ccc(N(C(C)=O)C(=O)c2ccc(C(=O)C(C)(C)C)cc2)cc1	91 to 94
O=C(O)c1cc(S)c(Cl)cc1Cl	254 to 255
CCCc1cc(-c2ccc(Cl)cc2)nc2c(C(=O)Nc3cccc(S(N)(=O)=O)c3)cnn12	252 to 254
O=C(O)c1ccc(CNC(=O)C2Cc3ccccc3N2S(=O)(=O)c2ccc(-c3ccc(F)cc3OC(F)F)cc2)cc1 (configuration not stated)	92 to 97
Cc1cc(C)c(S(=O)(=O)OC[C@@H]2C[C@@H]2COS(=O)(=O)c2c(C)cc(C)cc2C)c(C)c1	240
Cc1onc(NS(=O)(=O)c2ccccc2-c2ccc(-c3ncccn3)cc2Cn2ccc(C(F)(F)F)n2)c1C	108 to 114
C=CC(=O)N(C1CC(C)(C)NC(C)(C)C1)C1CC(C)(C)NC(C)(C)C1	115 to 118
Cc1cccc(N2CCN(CCCOc3ccc4ccc(=O)oc4c3)CC2)c1C	89
O=C1CN(c2ccccc2)C(=O)N1C(=O)c1ccccc1Cl	184 to 185
C/C=C/OC(=O)/C=C/N(C)C	48 to 48.5
O=C1NC=N[C@H]2CCCC[C@@H]12 (relative stereo)	133 to 134
CCC(=CC(CNC(=O)c1nc[nH]c1C)=NO)C(C)[N+](=O)[O-] (configuration not stated)	125 to 127
COC(=O)c1ccc(S(=O)(=O)Cc2c(O)ccc3c2CCCC3=O)cc1	132 to 134
NC(=O)c1ccc(OCC2CO2)c(I)c1 (configuration not stated)	149 to 151
CC(C)CNCc1cccc(OCCCNc2nc(N)nn2C)c1	89 to 90
Cc1cccc(NC(=O)NC2N=C(c3ccccc3)c3ccccc3N(Cc3nccc4ccccc34)C2=O)c1 (racemic)	218 to 221
COc1ccc2cc(C(C)NC(=O)NO)ccc2c1 (configuration not stated)	174 to 176
C=CCNc1nc(NCC(C)(C)C)c2scc(C)c2n1	90 to 92

SMILES	melting point [°C]
Ic1ccc2c(c1)ncn2-c1cccc(-n2cccn2)c1	209 to 211
C=Cc1cc(C)cc(C)c1CC(=O)N(O)C1(C(=O)OC)CCN(OC)CC1	177 to 179
CCN1C(=O)N(c2ccc([N+](=O)[O-])c(C(F)(F)F)c2)C(=O)C1(C)C	110 to 111
CC(=O)N1c2ccccc2Sc2c(O)c(O)c3ccccc3c21	258 to 260
CCCCN1C(=O)NC(Cc2ccc(C=O)cc2)C1=O (configuration not stated)	160
COc1cc(C=CC(=O)Nc2cnc3ccccc3c2-c2ccccc2)cc(OC)c1OC(C)=O	247 to 248
Cc1ccccc1Sc1cccc(C=O)c1O	42 to 43
CN1C(=O)CCC2=C1Cc1cc(C(=O)c3ccc(Cl)c(S(N)(=O)=O)c3)ccc12	259 to 260
COC(=O)CN1C(=S)CN=C(c2ccccc2)c2cc(Cl)ccc21	180 to 182
Cc1oc(-c2ccccc2)nc1COc1ccc2oc(CCCC#N)cc2c1	114 to 115
Cc1ccc(CCOCC(=O)O)cc1	65 to 67
O=C(NCCc1ccccc1)[C@@H]1Cc2ccccc2N1	112 to 116
Fc1ccc(C2CC(n3ccnc3)c3ccccc3N2)cc1 (configuration not stated)	168 to 170
Oc1ccc(C(c2ccc(O)cc2)n2cncn2)cc1	230
COc1cc2c(cc1C(F)(F)F)N(C(=O)Nc1ccc(CN(C)C)cc1)CC2	169 to 170
CCCCc1ccc2nc(NC(=O)c3csc(CNC(=O)OC(C)(C)C)n3)sc2c1	143 to 144
CN1C(=O)C(F)N=C(c2ccccc2F)c2cc(Br)ccc21 (configuration not stated)	127 to 130
N#CNc1ncc(-c2ccncc2)cn1	> 300
C=CCNCC(COc1cccc2c1CC(=O)N2)OC(=O)C12CC3CC(CC(C3)C1)C2 (configuration not stated)	170 to 172
CN(C(=O)c1cnn(C)c1C(=O)Nc1ccn2nc(N3CCOCC3)nc2c1)C1CCCC1	222 to 224
CC1(C)CC(=C(c2ccc(O)cc2)c2ccc(C#CCCC(=O)O)cc2)CC(C)(C)C1	233 to 234
CC(C)(C)OC(=O)c1cn(-c2ccc(Cl)cc2)c(-c2ccc(Cl)cc2Cl)n1	179 to 181
CC(=O)N1CCC(CC(=O)c2ccc(N(C)C)cc2)CC1	136
CCCCc1oc2ccccc2c1/C=N/OCCCOc1ccc(C(=O)O)c(O)c1	140 to 142
